# Measurements published in patent US12697325B2 (TENNOR THERAPEUTICS (SUZHOU) LIMITED, priority 2021, dated 2026).
# Where two headings read alike, the source gives them in different places.
# Key:
# [1] = system: Acinetobacter baumannii strains; assay: Minimum inhibitory concentration (CLSI M07), Example 2, 20 strains; type: cell-based
# [2] = Pharmacokinetics in plasma and bronchoalveolar lavage fluid of female CD-1 mice; type: in vivo; details: female, CD-1, mouse
# Experimental: An appropriate amount of the test drug was accurately weighed and mixed with the appropriate volume of vehicle (5% DMSO+0.5% Tween 80 in normal saline) to obtain a clear solution for the test in Table 9. The formulation solution for injection was prepared to sterile filtration through a 0.22 μm filter prior to administration. The mice were dosed with the drug within 30 min after the formulated solution for injection was prepared. A 1.5 mL of the formulation solution for injection was transferred into a polypropylene microcentrifuge tube for dose verification by LC/UV or LC-MS/MS.
# All blood samples were transferred to pre-frozen EDTA-K2 tubes and placed on wet ice until centrifugation. […]
# Plasma: approximately 100 μL of blood sample was transferred into pre-cooled commercial EDTA-K2 tubes and placed on wet ice until centrifugation. After the blood samples were centrifuged at approximately 4° C. and 3, 200 g for 10 min, plasma was collected and transferred to pre-labeled 96-well plates or polypropylene tubes, flash frozen on dry ice, and stored at ≤−60° C. until the analysis by LC-MS/MS.
# Serum: approximately 100 μL of blood sample was transferred into a tube without anticoagulant and placed on wet ice for approximately 30 min and centrifuged at 4° C. and 3,000 g for 10 min, and the serum was collected and transferred into pre-labeled PP tubes placed on wet ice. After the completion of all the collections, serum samples were stored at −60° C. until being sent to the animal experimental team to determine urea concentration.
# Bronchoalveolar lavage fluid (BALF): pre-cooled tracheo-alveolar lavage fluid was injected into the trachea or predefined bronchi. After a full expansion of the lung tissue, the lavage fluid was slowly drawn out with a syringe 30 s later. The lung was lavaged three times. During the last lavage, the lung tissue was gently squeezed to restore the fluid. To prevent contamination of other lung tissues, the corresponding bronchi were ligated. Both lungs of the mice were perfused with 0.8 mL.
# […] Approximately 200 μL of the BALF samples were transferred into a polypropylene tube, rapidly frozen on dry ice, maintained at ≤−60° C., and sent to the animal experimental team to determine urea concentration. The remaining BALF samples (approximately 600 μL) were rapidly frozen on dry ice and maintained at ≤−60° C. until being submitted for drug concentration analysis by LC-MS/MS.
# [3] = Stability of sulbactam sodium and avibactam sodium in different pH buffers (HPLC purity); type: physicochemical; details: 20° C., 24 h; for Purity in pH buffer (monomer): purity 100% at 0 h, alone; for Purity in pH buffer (in mixture): mixture 4:1 (sulbactam sodium 1 mg/mL, avibactam sodium 0.25 mg/mL)
# [4] = cited from earlier work
# [5] = 0.5 g, q8 h via infusion for 2 h; cited from earlier work
smiles,measurement,setting,value
"NC(=O)[C@@H]1CC[C@@H]2CN1C(=O)N2OS(=O)(=O)O [Avibactam, [(2S,5R)-2-carbamoyl-7-oxo-1,6-diazabicyclo [3.2.1]oct-6-yl] bisulfate]",MIC of the strain BAA-1795 (component in the combination),"[1]; strain BAA-1795, sulbactam/avibactam 4:1, concentration of the named component",2 µg/mL
same,MIC90 of the single component in the combination,"[1]; sulbactam sodium:avibactam sodium = 4:1, concentration of the named component",4 µg/mL
same,MIC50 of the single component in the combination,"[1]; sulbactam sodium:avibactam sodium = 4:1, concentration of the named component, Examples 1 and 2",2 µg/mL
same,Kp at 0.5 h,"[2]; BALF/plasma, intravenous, 25 mg/kg, 0.50 h, read-out: BALF/plasma ratio Mean",0.0474
same,Kp at 3 h,"[2]; BALF/plasma, intravenous, 150 mg/kg, 3.00 h, read-out: BALF/plasma ratio Mean",0.0319
same,Kp at 5 h,"[2]; BALF/plasma, intravenous, 150 mg/kg, 5.00 h, read-out: BALF/plasma ratio Mean",0.153
same,Kp at 8 h,"[2]; BALF/plasma, intravenous, 150 mg/kg, 8.00 h, read-out: BALF/plasma ratio Mean",0.211
same,concentration at 0.5 h,"[2]; ELF, intravenous, 0.50 h, group 01 (25 mg/kg per Table 9), read-out: ELF concentration Mean ± SD",5400 ± 2390 ng/mL
same,concentration at 3 h,"[2]; ELF, intravenous, 3.00 h, 150 mg/kg, read-out: ELF concentration Mean ± SD",4730 ± 2410 ng/mL
same,concentration at 5 h,"[2]; ELF, intravenous, 5.00 h, 150 mg/kg, read-out: ELF concentration Mean ± SD",129 ± 75.2 ng/mL
same,concentration at 8 h,"[2]; ELF, intravenous, 8.00 h, 150 mg/kg, read-out: ELF concentration Mean ± SD",22.2 ng/mL
same,concentration at 0.5 h,"[2]; bronchoalveolar lavage fluid (BALF), intravenous, 0.50 h, group 01 (25 mg/kg per Table 9), read-out: BALF concentration Mean ± SD",849 ± 210 ng/mL
same,concentration at 3 h,"[2]; bronchoalveolar lavage fluid (BALF), intravenous, 3.00 h, 150 mg/kg, read-out: BALF concentration Mean ± SD",626 ± 459 ng/mL
same,concentration at 5 h,"[2]; bronchoalveolar lavage fluid (BALF), intravenous, 5.00 h, 150 mg/kg, read-out: BALF concentration Mean ± SD",19 ± 11.6 ng/mL
same,concentration at 8 h,"[2]; bronchoalveolar lavage fluid (BALF), intravenous, 8.00 h, 150 mg/kg, read-out: BALF concentration Mean ± SD",5.37 ng/mL
same,concentration at 0.25 h,"[2]; plasma, 0.25 h, group 01 (25 mg/kg per Table 9), intravenous dripping, read-out: Plasma concentration Mean ± SD",16500 ± 2260 ng/mL
same,concentration at 0.5 h,"[2]; plasma, 0.50 h, group 01 (25 mg/kg per Table 9), intravenous dripping, read-out: Plasma concentration Mean ± SD",17900 ± 2040 ng/mL
same,concentration at 1 h,"[2]; plasma, 1.00 h, 150 mg/kg intravenous dripping, read-out: Plasma concentration Mean ± SD",18800 ± 3070 ng/mL
same,concentration at 3 h,"[2]; plasma, 3.00 h, 150 mg/kg intravenous dripping, read-out: Plasma concentration Mean ± SD",18300 ± 4530 ng/mL
same,concentration at 4 h,"[2]; plasma, 4.00 h, 150 mg/kg intravenous dripping, read-out: Plasma concentration Mean ± SD",285 ± 226 ng/mL
same,concentration at 5 h,"[2]; plasma, 5.00 h, 150 mg/kg intravenous dripping, read-out: Plasma concentration Mean ± SD",123 ± 34.8 ng/mL
same,concentration at 6 h,"[2]; plasma, 6.00 h, 150 mg/kg intravenous dripping, read-out: Plasma concentration Mean ± SD",57.8 ± 3.1 ng/mL
same,concentration at 8 h,"[2]; plasma, 8.00 h, 150 mg/kg intravenous dripping, read-out: Plasma concentration Mean ± SD",28.5 ± 9.52 ng/mL
same,Purity in pH buffer (monomer),[3]; pH 4.0 buffer,−24.20%
same,Purity in pH buffer (in mixture),[3]; pH 4.0 buffer,−23.74%
same,Purity in pH buffer (monomer),[3]; pH 4.5 buffer,−2.31%
same,Purity in pH buffer (in mixture),[3]; pH 4.5 buffer,−1.42%
same,Purity in pH buffer (monomer),[3]; pH 5.0 buffer,−0.71%
same,Purity in pH buffer (in mixture),[3]; pH 5.0 buffer,−0.99%
same,Purity in pH buffer (monomer),[3]; pH 5.5 buffer,−0.77%
same,Purity in pH buffer (in mixture),[3]; pH 5.5 buffer,−0.54%
same,Purity in pH buffer (monomer),[3]; pH 6.0 buffer,−1.75%
same,Purity in pH buffer (in mixture),[3]; pH 6.0 buffer,−1.76%
same,Purity in pH buffer (monomer),[3]; pH 7.3 buffer,−0.81%
same,Purity in pH buffer (in mixture),[3]; pH 7.3 buffer,−1.06%
same,Purity in pH buffer (monomer),[3]; pH 8.0 buffer,−8.87%
same,Purity in pH buffer (in mixture),[3]; pH 8.0 buffer,−8.81%
same,Protein binding,[4],~8%
same,Part of the dosing interval with plasma concentration above 4 μg/mL,[5],50%
same,Part of the dosing interval with plasma concentration above 8 μg/mL,[5],30%
